Data: patent US6706663B2, “Herbicidal 3-heterocyclic substituted benzisothiazole and benzisoxazole compounds” (Wyeth, priority 2000, dated 2004)

Legend:
[1] = system: ABUTH (Abutilon theophrasti); experiment: Postemergence herbicidal evaluation; assay type: in vivo, Medic.
Summary of the method: (§1)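 Seedlings grown about two weeks in flats, sprayed, then kept under standard greenhouse care. Rated visually 4–5 weeks after treatment on a 0–9 scale (stand, vigour, malformation, size, chlorosis, overall appearance) relative to untreated control; repeat tests averaged.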

[2] = system: AMBEL (Ambrosia artemisifolia); experiment: Postemergence herbicidal evaluation; assay type: in vivo, L.
Summary of the method: as §1

[3] = system: CASOB (Cassia obtusifolia); experiment: Postemergence herbicidal evaluation; assay type: in vivo, L.
Summary of the method: as §1

[4] = system: CHEAL (Chenopodium album); experiment: Postemergence herbicidal evaluation; assay type: in vivo, L.
Summary of the method: as §1

GALAP (Galium aparine) [5] = experiment: Postemergence herbicidal evaluation; assay type: in vivo
Summary of the method: as §1

[6] = system: IPOHE (Ipomoea hederacea); experiment: Postemergence herbicidal evaluation; assay type: in vivo, (L.) Jacq.
Summary of the method: as §1

[7] = system: GLXMAW (Soybean, Williams); experiment: Postemergence herbicidal evaluation; assay type: in vivo, Glycine max, (L.) Merr. cv Williams
Summary of the method: as §1

ORYSAT (Rice, Tebonnet) [8] = experiment: Postemergence herbicidal evaluation; assay type: in vivo, Oryza sativa, (L.) Tebonnet
Summary of the method: as §1

ZEAMX (Corn, Field) = experiment: Postemergence herbicidal evaluation; assay type: in vivo, Zea mays, L.
Summary of the method: as §1

GALAP (Galium aparine) [9] = experiment: Preemergence herbicidal evaluation; assay type: in vivo; conditions: preemergence, rated 4-5 weeks after treatment
Summary of the method: (§2)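 Seeds planted in potting soil cups and sprayed preemergence with aqueous acetone compound solution. Greenhouse-grown; rated 4–5 weeks after treatment on a 0-9 visual scale (stand, vigor, malformation, size, chlorosis, appearance) versus control.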

[10] = system: ECHCG (Echinochloa crus-galli); experiment: Preemergence herbicidal evaluation; assay type: in vivo, (L.) Beau; conditions: preemergence, rated 4-5 weeks after treatment
Summary of the method: as §2

SETVI (Setaria viridis) = experiment: Preemergence herbicidal evaluation; assay type: in vivo, (L.) Beau; conditions: preemergence, rated 4-5 weeks after treatment
Summary of the method: as §2

ORYSAT (Rice, Tebonnet) [11] = experiment: Preemergence herbicidal evaluation; assay type: in vivo, Oryza sativa, (L.) Tebonnet; conditions: preemergence, rated 4-5 weeks after treatment
[12] = system: TRZAWR (Wheat, Winter, cv Riband); experiment: Preemergence herbicidal evaluation; assay type: in vivo, Triticum aestivum; conditions: preemergence, rated 4-5 weeks after treatment
Summary of the method: as §2

[13] = system: ECHORC (Echinochloa oryzoides); experiment: Flooded paddy, postemergence weed control; assay type: in vivo, Echinochloa oryzoides (Ard.) Fritsch.; conditions: postemergence weeds, rated 3-4 weeks after treatment
Summary of the method: (§3)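 Weeds 3–5 cm tall and rice at 1.5–2.5 leaf stage in containers flooded 1.5–3 cm deep; compounds in 50/50 v/v aqueous/acetone injected into flood water at about 0.0320–0.2500 kg/ha. Greenhouse-held; visual 0–9 rating versus untreated control after three to four weeks.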

CYPIR (Cyperus iria) = experiment: Flooded paddy, postemergence weed control; assay type: in vivo; conditions: postemergence weeds, rated 3-4 weeks after treatment
Description: Results of herbicide evaluation are expressed on a rating scale (0-9). The scale is based upon a visual observation of plant stand, vigor, malformation, size, chlorosis and overall plant appearance as compared with a control.
Plastic containers containing weeds which are 3 to 5 cm tall and rice seedlings at the 1.5 to 2.5 leaf stage are flooded with water. The water is maintained at 1.5 to 3 cm above the soil surface for the duration of the experiment. Test compounds are applied as aqueous/acetone mixtures 50/50 v/v directly into the flood water to provide the equivalent of about 0.0320 to 0.2500 kg/ha of active ingredient. The treated containers are placed on greenhouse benches and cared for in accordance with conventional greenhouse procedures. Three to four weeks after treatment, the test is terminated and each container is examined and herbicidal effect rated according to the rating system provided in Example 87. The compounds evaluated are identified in Example 87 and plant species used are identified in Example 89.

[14] = system: CYPSE (Cyperus serotinus); experiment: Flooded paddy, postemergence weed control; assay type: in vivo, Rottb.; conditions: postemergence weeds, rated 3-4 weeks after treatment
Summary of the method: as §3

[15] = system: MOOVA (Monochoria vaginalis); experiment: Flooded paddy, postemergence weed control; assay type: in vivo, Presl.; conditions: postemergence weeds, rated 3-4 weeks after treatment
Summary of the method: as §3

[16] = system: SAGPY (Sagittaria pygmaea); experiment: Flooded paddy, postemergence weed control; assay type: in vivo, L.; conditions: postemergence weeds, rated 3-4 weeks after treatment
Summary of the method: as §3

ORYSAT (Rice, Tebonnet) [17] = experiment: Flooded paddy, post-transplant and postemergence rice tolerance; assay type: in vivo, Oryza sativa, (L.) Tebonnet; conditions: post-transplant rice, rated 3-4 weeks after treatment
Summary of the method: as §3

CCc1cc(-c2nsc3ccc(-n4c(=O)cc(C(F)(F)F)n(C)c4=O)cc23)c(CC)s1 [Compound 8, 3-[3-(2,5-diethyl-3-thienyl)-1,2-benzisothiazol-5-yl]-1-methyl-6-(trifluoromethyl)uracil]
Postemergence herbicidal rating, ABUTH ([1]; rate 0.0320 kg/ha): 9.0 | Postemergence herbicidal rating, ABUTH ([1]; rate 0.0620 kg/ha): 9.0 | Postemergence herbicidal rating, AMBEL ([2]; rate 0.0320 kg/ha): 3.0 | Postemergence herbicidal rating, AMBEL ([2]; rate 0.0620 kg/ha): 6.0 | Postemergence herbicidal rating, CASOB ([3]; rate 0.0320 kg/ha): 1.0 | Postemergence herbicidal rating, CASOB ([3]; rate 0.0620 kg/ha): 1.0 | Postemergence herbicidal rating, CHEAL ([4]; rate 0.0320 kg/ha): 4.0 | Postemergence herbicidal rating, CHEAL ([4]; rate 0.0620 kg/ha): 7.0 | Postemergence herbicidal rating, GALAP (GALAP (Galium aparine) [5]; rate 0.0320 kg/ha): 3.0 | Postemergence herbicidal rating, GALAP (GALAP (Galium aparine) [5]; rate 0.0620 kg/ha): 6.0 | Postemergence herbicidal rating, IPOHE ([6]; rate 0.0320 kg/ha): 9.0 | Postemergence herbicidal rating, IPOHE ([6]; rate 0.0620 kg/ha): 7.0 | Postemergence herbicidal rating, GLXMAW ([7]; rate 0.0320 kg/ha): 5.0 | Postemergence herbicidal rating, GLXMAW ([7]; rate 0.0620 kg/ha): 5.5 | Postemergence herbicidal rating, ORYSAT (ORYSAT (Rice, Tebonnet) [8]; rate 0.0320 kg/ha): 3.0 | Postemergence herbicidal rating, ORYSAT (ORYSAT (Rice, Tebonnet) [8]; rate 0.0620 kg/ha): 3.0 | Postemergence herbicidal rating, ZEAMX (ZEAMX (Corn, Field); rate 0.0320 kg/ha): 5.0 | Postemergence herbicidal rating, ZEAMX (ZEAMX (Corn, Field); rate 0.0620 kg/ha): 5.0 | GALAP preemergence herbicidal rating (GALAP (Galium aparine) [9]; Rate 0.0620 kg/ha): 0.0 | GALAP preemergence herbicidal rating (GALAP (Galium aparine) [9]; Rate 0.1250 kg/ha): 0.0 | GALAP preemergence herbicidal rating (GALAP (Galium aparine) [9]; Rate 0.2500 kg/ha): 9.0 | ECHCG preemergence herbicidal rating ([10]; Rate 0.0620 kg/ha): 0.0 | ECHCG preemergence herbicidal rating ([10]; Rate 0.1250 kg/ha): 0.0 | ECHCG preemergence herbicidal rating ([10]; Rate 0.2500 kg/ha): 9.0 | SETVI preemergence herbicidal rating (SETVI (Setaria viridis); Rate 0.0620 kg/ha): 9.0 | SETVI preemergence herbicidal rating (SETVI (Setaria viridis); Rate 0.1250 kg/ha): 9.0 | SETVI preemergence herbicidal rating (SETVI (Setaria viridis); Rate 0.2500 kg/ha): 9.0 | ORYSAT preemergence herbicidal rating (ORYSAT (Rice, Tebonnet) [11]; Rate 0.0620 kg/ha): 0.0 | ORYSAT preemergence herbicidal rating (ORYSAT (Rice, Tebonnet) [11]; Rate 0.1250 kg/ha): 0.0 | ORYSAT preemergence herbicidal rating (ORYSAT (Rice, Tebonnet) [11]; Rate 0.2500 kg/ha): 0.0 | TRZAWR preemergence herbicidal rating ([12]; Rate 0.0620 kg/ha): 0.0 | TRZAWR preemergence herbicidal rating ([12]; Rate 0.1250 kg/ha): 0.0 | TRZAWR preemergence herbicidal rating ([12]; Rate 0.2500 kg/ha): 0.0 | herbicide rating (0-9) ECHORC ([13]; 0.0320 kg/ha into flood water): 3.5 | herbicide rating (0-9) ECHORC ([13]; 0.0620 kg/ha into flood water): 4.0 | herbicide rating (0-9) ECHORC ([13]; 0.1250 kg/ha into flood water): 5.0 | herbicide rating (0-9) CYPIR (CYPIR (Cyperus iria); 0.0320 kg/ha into flood water): 9.0 | herbicide rating (0-9) CYPIR (CYPIR (Cyperus iria); 0.0620 kg/ha into flood water): 9.0 | herbicide rating (0-9) CYPIR (CYPIR (Cyperus iria); 0.1250 kg/ha into flood water): 9.0 | herbicide rating (0-9) CYPSE ([14]; 0.0320 kg/ha into flood water): 0.0 | herbicide rating (0-9) CYPSE ([14]; 0.0620 kg/ha into flood water): 0.0 | herbicide rating (0-9) CYPSE ([14]; 0.1250 kg/ha into flood water): 0.0 | herbicide rating (0-9) MOOVA ([15]; 0.0320 kg/ha into flood water): 4.5 | herbicide rating (0-9) MOOVA ([15]; 0.0620 kg/ha into flood water): 4.5 | herbicide rating (0-9) MOOVA ([15]; 0.1250 kg/ha into flood water): 5.5 | herbicide rating (0-9) SAGPY ([16]; 0.0320 kg/ha into flood water): 0.0 | herbicide rating (0-9) SAGPY ([16]; 0.0620 kg/ha into flood water): 0.0 | herbicide rating (0-9) SAGPY ([16]; 0.1250 kg/ha into flood water): 1.0 | herbicide rating (0-9) ORYSAT (rice tolerance) (ORYSAT (Rice, Tebonnet) [17]; 0.0320 kg/ha into flood water): 1.0 | herbicide rating (0-9) ORYSAT (rice tolerance) (ORYSAT (Rice, Tebonnet) [17]; 0.0620 kg/ha into flood water): 2.0 | herbicide rating (0-9) ORYSAT (rice tolerance) (ORYSAT (Rice, Tebonnet) [17]; 0.1250 kg/ha into flood water): 2.0
